# Reference: the NIST ThermoML archive (doi:10.1016/j.jct.2016.10.023)
# Numbers after ± are expanded uncertainties.
# Assay: xn = mol fraction of the nth substance listed
# Conditions: Constant-volume piezometry
smiles,measurement,setting,value
CCCCC [pentane] + CCCO,mass density,"543.15 K, 9051 kPa, Fluid (supercritical or subcritical phases), x1 = 0.2",378.24 ± 1.9 kg/m3
same,mass density,"543.15 K, 9246 kPa, Fluid (supercritical or subcritical phases), x1 = 0.8",288.09 ± 1.4 kg/m3
same,mass density,"543.15 K, 9255 kPa, Fluid (supercritical or subcritical phases), x1 = 0.2",383.04 ± 1.9 kg/m3
same,mass density,"543.15 K, 9409 kPa, Fluid (supercritical or subcritical phases), x1 = 0.9",301.38 ± 1.5 kg/m3
same,mass density,"543.15 K, 9589 kPa, Fluid (supercritical or subcritical phases), x1 = 0.2",390.87 ± 2 kg/m3
same,mass density,"543.15 K, 9630 kPa, Fluid (supercritical or subcritical phases), x1 = 0.8",298.89 ± 1.5 kg/m3
same,mass density,"543.15 K, 9923 kPa, Fluid (supercritical or subcritical phases), x1 = 0.9",312.01 ± 1.6 kg/m3
same,mass density,"543.15 K, 10354 kPa, Fluid (supercritical or subcritical phases), x1 = 0.8",315.05 ± 1.6 kg/m3
same,mass density,"543.15 K, 11098 kPa, Fluid (supercritical or subcritical phases), x1 = 0.9",333.7 ± 1.7 kg/m3
same,mass density,"543.15 K, 11177 kPa, Fluid (supercritical or subcritical phases), x1 = 0.2",418.27 ± 2.1 kg/m3
same,mass density,"543.15 K, 11295 kPa, Fluid (supercritical or subcritical phases), x1 = 0.8",333.52 ± 1.7 kg/m3
same,mass density,"543.15 K, 11953 kPa, Fluid (supercritical or subcritical phases), x1 = 0.8",345.03 ± 1.7 kg/m3
same,mass density,"543.15 K, 12737 kPa, Fluid (supercritical or subcritical phases), x1 = 0.9",353.77 ± 1.8 kg/m3
same,mass density,"543.15 K, 13394 kPa, Fluid (supercritical or subcritical phases), x1 = 0.8",361.57 ± 1.8 kg/m3
same,mass density,"543.15 K, 15943 kPa, Fluid (supercritical or subcritical phases), x1 = 0.2",469.86 ± 2.4 kg/m3
same,mass density,"543.15 K, 19097 kPa, Fluid (supercritical or subcritical phases), x1 = 0.9",406.88 ± 2 kg/m3
same,mass density,"543.15 K, 19983 kPa, Fluid (supercritical or subcritical phases), x1 = 0.8",417.78 ± 2.1 kg/m3
same,mass density,"543.15 K, 22804 kPa, Fluid (supercritical or subcritical phases), x1 = 0.2",509.01 ± 2.6 kg/m3
same,mass density,"543.15 K, 31784 kPa, Fluid (supercritical or subcritical phases), x1 = 0.8",466.21 ± 2.4 kg/m3
same,mass density,"543.15 K, 33595 kPa, Fluid (supercritical or subcritical phases), x1 = 0.2",546.39 ± 2.8 kg/m3
same,mass density,"543.15 K, 42744 kPa, Fluid (supercritical or subcritical phases), x1 = 0.8",495.57 ± 2.5 kg/m3
same,mass density,"543.15 K, 49093 kPa, Fluid (supercritical or subcritical phases), x1 = 0.2",580.61 ± 2.9 kg/m3
same,mass density,"553.15 K, 1401 kPa, Gas, x1 = 0.8",22.49 ± 0.07 kg/m3
same,mass density,"553.15 K, 1675 kPa, Gas, x1 = 0.2",24.89 ± 0.08 kg/m3
same,mass density,"553.15 K, 2144 kPa, Gas, x1 = 0.8",36.64 ± 0.11 kg/m3
same,mass density,"553.15 K, 3159 kPa, Gas, x1 = 0.8",58.33 ± 0.18 kg/m3
same,mass density,"553.15 K, 3511 kPa, Gas, x1 = 0.2",52.93 ± 0.16 kg/m3
same,mass density,"553.15 K, 3789 kPa, Gas, x1 = 0.8",73.69 ± 0.23 kg/m3
same,mass density,"553.15 K, 4048 kPa, Fluid (supercritical or subcritical phases), x1 = 0.9",83.26 ± 0.42 kg/m3
same,mass density,"553.15 K, 4680 kPa, Gas, x1 = 0.2",91.28 ± 0.29 kg/m3
same,mass density,"553.15 K, 4938 kPa, Fluid (supercritical or subcritical phases), x1 = 0.8",106.25 ± 0.54 kg/m3
same,mass density,"553.15 K, 5296 kPa, Fluid (supercritical or subcritical phases), x1 = 0.9",123.17 ± 0.62 kg/m3
same,mass density,"553.15 K, 5319 kPa, Fluid (supercritical or subcritical phases), x1 = 0.2",114.19 ± 0.59 kg/m3
same,mass density,"553.15 K, 5611 kPa, Fluid (supercritical or subcritical phases), x1 = 0.9",133.93 ± 0.68 kg/m3
same,mass density,"553.15 K, 6054 kPa, Fluid (supercritical or subcritical phases), x1 = 0.8",140.1 ± 0.71 kg/m3
same,mass density,"553.15 K, 6100 kPa, Fluid (supercritical or subcritical phases), x1 = 0.2",150.13 ± 0.77 kg/m3
same,mass density,"553.15 K, 6344 kPa, Fluid (supercritical or subcritical phases), x1 = 0.9",163.72 ± 0.83 kg/m3
same,mass density,"553.15 K, 6388 kPa, Fluid (supercritical or subcritical phases), x1 = 0.8",155.82 ± 0.79 kg/m3
same,mass density,"553.15 K, 6521 kPa, Fluid (supercritical or subcritical phases), x1 = 0.2",175.35 ± 0.91 kg/m3
same,mass density,"553.15 K, 6714 kPa, Fluid (supercritical or subcritical phases), x1 = 0.2",189.36 ± 0.97 kg/m3
same,mass density,"553.15 K, 6741 kPa, Fluid (supercritical or subcritical phases), x1 = 0.8",169.54 ± 0.86 kg/m3
same,mass density,"553.15 K, 6874 kPa, Fluid (supercritical or subcritical phases), x1 = 0.8",175.77 ± 0.89 kg/m3
same,mass density,"553.15 K, 6982 kPa, Fluid (supercritical or subcritical phases), x1 = 0.9",189.18 ± 0.96 kg/m3
same,mass density,"553.15 K, 6985 kPa, Fluid (supercritical or subcritical phases), x1 = 0.8",180.56 ± 0.92 kg/m3
same,mass density,"553.15 K, 7102 kPa, Fluid (supercritical or subcritical phases), x1 = 0.2",219.77 ± 1.1 kg/m3
same,mass density,"553.15 K, 7277 kPa, Fluid (supercritical or subcritical phases), x1 = 0.9",202.08 ± 1 kg/m3
same,mass density,"553.15 K, 7296 kPa, Fluid (supercritical or subcritical phases), x1 = 0.8",192.88 ± 0.98 kg/m3
same,mass density,"553.15 K, 7439 kPa, Fluid (supercritical or subcritical phases), x1 = 0.2",245.11 ± 1.3 kg/m3
same,mass density,"553.15 K, 7620 kPa, Fluid (supercritical or subcritical phases), x1 = 0.2",258.81 ± 1.3 kg/m3
same,mass density,"553.15 K, 7669 kPa, Fluid (supercritical or subcritical phases), x1 = 0.2",262.51 ± 1.4 kg/m3
same,mass density,"553.15 K, 7760 kPa, Fluid (supercritical or subcritical phases), x1 = 0.9",220.36 ± 1.1 kg/m3
same,mass density,"553.15 K, 7786 kPa, Fluid (supercritical or subcritical phases), x1 = 0.8",213.54 ± 1.1 kg/m3
same,mass density,"553.15 K, 7792 kPa, Fluid (supercritical or subcritical phases), x1 = 0.2",271.95 ± 1.4 kg/m3
same,mass density,"553.15 K, 7945 kPa, Fluid (supercritical or subcritical phases), x1 = 0.8",219.29 ± 1.1 kg/m3
same,mass density,"553.15 K, 8057 kPa, Fluid (supercritical or subcritical phases), x1 = 0.2",290.1 ± 1.5 kg/m3
same,mass density,"553.15 K, 8082 kPa, Fluid (supercritical or subcritical phases), x1 = 0.9",232.72 ± 1.2 kg/m3
same,mass density,"553.15 K, 8169 kPa, Fluid (supercritical or subcritical phases), x1 = 0.9",236.18 ± 1.2 kg/m3
same,mass density,"553.15 K, 8267 kPa, Fluid (supercritical or subcritical phases), x1 = 0.9",240.57 ± 1.2 kg/m3
same,mass density,"553.15 K, 8315 kPa, Fluid (supercritical or subcritical phases), x1 = 0.8",234.36 ± 1.2 kg/m3
same,mass density,"553.15 K, 8323 kPa, Fluid (supercritical or subcritical phases), x1 = 0.2",306.36 ± 1.6 kg/m3
same,mass density,"553.15 K, 8361 kPa, Fluid (supercritical or subcritical phases), x1 = 0.9",243.88 ± 1.2 kg/m3
same,mass density,"553.15 K, 8384 kPa, Fluid (supercritical or subcritical phases), x1 = 0.2",310.58 ± 1.6 kg/m3
same,mass density,"553.15 K, 8538 kPa, Fluid (supercritical or subcritical phases), x1 = 0.2",318.29 ± 1.6 kg/m3
same,mass density,"553.15 K, 8586 kPa, Fluid (supercritical or subcritical phases), x1 = 0.8",244.98 ± 1.2 kg/m3
same,mass density,"553.15 K, 8982 kPa, Fluid (supercritical or subcritical phases), x1 = 0.8",258.18 ± 1.3 kg/m3
same,mass density,"553.15 K, 9164 kPa, Fluid (supercritical or subcritical phases), x1 = 0.2",340.74 ± 1.7 kg/m3
same,mass density,"553.15 K, 9236 kPa, Fluid (supercritical or subcritical phases), x1 = 0.2",343.52 ± 1.7 kg/m3
same,mass density,"553.15 K, 9433 kPa, Fluid (supercritical or subcritical phases), x1 = 0.8",272.13 ± 1.4 kg/m3
same,mass density,"553.15 K, 9589 kPa, Fluid (supercritical or subcritical phases), x1 = 0.9",281.59 ± 1.4 kg/m3
same,mass density,"553.15 K, 10042 kPa, Fluid (supercritical or subcritical phases), x1 = 0.8",287.95 ± 1.4 kg/m3
same,mass density,"553.15 K, 10274 kPa, Fluid (supercritical or subcritical phases), x1 = 0.9",301.23 ± 1.5 kg/m3
same,mass density,"553.15 K, 10469 kPa, Fluid (supercritical or subcritical phases), x1 = 0.8",298.75 ± 1.5 kg/m3
same,mass density,"553.15 K, 10491 kPa, Fluid (supercritical or subcritical phases), x1 = 0.2",378.05 ± 1.9 kg/m3
same,mass density,"553.15 K, 10735 kPa, Fluid (supercritical or subcritical phases), x1 = 0.2",382.84 ± 1.9 kg/m3
